In US5004749A, “Concentrated aqueous solution of glutaraldehyde and 1,2-benzisothiazolin-3-one” (priority 1989, dated 1991):
Converted amounts (≈) assume the structure as drawn.

What was measured:
microbial contamination = assay: MIC in kaolin slurry with significant microbial spoilage, reduction to less than ten colony forming units/ml (Example 4); type: cell-based
Procedure: A sample of kaolin slurry with significant microbial spoilage was dosed with a range of concentrations of 1,2-benzisothiazolin-3-one, glutaraldehyde, and 1,2-benzisothiazolin-3-one plus glutaraldehyde (1:14 weight ratio). A sample was included, antimicrobial free, for control purposes with determinations of the colony forming units/ml. MIC values (in parts per million of Active Ingredient) to reduce microbial contamination to less than ten colony forming units/ml were determined by the absence of detectable growth by dilution plate counts.
(§1) The results for Examples 3 and 4 were quantified with respect to the synergy shown through the application of an equation described in Berenbaum, M.C. "A method for Testing for Synergy with Any Number of Agents" The Journal of Infectious Diseases, Vol 137, No. 2 pp 122-130 (February, 1978). The relevant equation is as follows: [formula]
(§2) If Z is less than 1, synergy is present. If Z equals 1, additive interaction is present. If Z is greater than 1, an antagonistic interaction is present.

[1] = tested on: Acinetobacter calcoaceticus, Pseudomonas aeruginosa, Enterobacter cloacae and Escherichia coli; assay: MIC in calcium carbonate slurry, inoculated weekly, reduction to less than ten colony forming units/ml (Example 3); type: cell-based; settings: for MIC: Calcium Carbonate Slurry
Procedure: Several forty gram samples of a calcium carbonate slurry (Gamma-Fil 90, available from the Georgia Marble Company) which were free of microbial growth, were prepared. These samples were divided into four groups. The first group was dosed with varying amounts of glutaraldehyde (in the form of a 50 percent aqueous solution); the second group was dosed with varying amounts of 1,2-benzisothiazolin-3-one the third group was dosed with varying amounts of glutaraldehyde (in the form of a 50 percent aqueous solution) and of 1,2-benzisothiazolin-3-one (in the form of Proxel® Press Paste) in a 14:1 ratio by weight of glutaraldehyde:BIT a fourth group was left untreated as a control. These samples were each inoculated three times on a weekly basis with an inoculum which contained the following microorganisms: Acinetobacter calcoaceticus, Pseudomonas aeruginosa, Enterobacter cloacae and Escherichia coli. The minimum inhibitory concentration (MIC) values were determined for preservative levels effective in reducing the contaminating microorganisms to less than ten colony forming units/ml for the first three groups. The number of colony forming units/ml in the control group was also determined.
as §1, §2

physchem = type: physicochemical
Procedure: A pH 3.2 solution was attained by adding 12.5 ml of 0.2 M acetic acid to 100 ml of deionized water. The pH 4.8 solution was prepared by adding 22.5 ml of 0.2 M acetic acid plus 27.5 ml of 0.2 M sodium acetate brought to a total volume of 100 ml with deionized water. Finally the pH of 6.8 solution was created by adding 4.1 ml of 0.2 M sodium acetate plus 1 drop of 0.2 M acetic acid to 100 ml of deionized water. […] Employing the same buffering agents, solutions with 50% aqueous glutaraldehyde were prepared having pH's of 3.2, 4.8 and 6.8 respectively. A twenty ml solution having a pH of 3.2 was attained with 1.45 ml of acetic acid; the twenty ml solution having a pH of 4.8 contained acetic acid and sodium acetate in a 3:1 weight ratio and the twenty ml solution having a pH of 6.8 contained 1.25 g of sodium acetate. The solubility of BIT in each solution was determined as described above.

[2] = type: physicochemical
Procedure: In order to compare the composition of the present invention with that disclosed in U.S. Pat. No. 4,539,071 (Clifford et al) a stable aqueous composition of isothiazolone, the following experiment was performed. To deionized water were added 0.2 percent cupric nitrate, 9 percent magnesium chloride and 15 percent magnesium nitrate, all in percent by weight.

O=c1[nH]sc2ccccc12 [BIT, 1,2-benzisothiazolin-3-one]
MIC (microbial contamination; 24 h, 1 day): 178 µg/mL
MIC (microbial contamination; 48 h, 2 days): > 178 µg/mL
MIC (microbial contamination; 72 h, 3 days): > 178 µg/mL
MIC (microbial contamination; 168 h, 7 days): 133 µg/mL
MIC ([1]; Week 1): 285 µg/mL
MIC ([1]; Week 2): > 570 µg/mL
MIC ([1]; Week 3): 380 µg/mL
solubility of 1,2-benzisothiazolin-3-one is increased by the addition of glutaraldehyde (physchem): increased considerably
solubility (physchem; buffered 50% aqueous glutaraldehyde, pH 3.2): 31.8 mg/mL (≈ 210 mM)
solubility (physchem; buffered 50% aqueous glutaraldehyde, pH 4.8): 33.8 mg/mL (≈ 224 mM)
solubility (physchem; buffered 50% aqueous glutaraldehyde, pH 6.8): 30.4 mg/mL (≈ 201 mM)
solubility (physchem; buffered deionized water, pH 3.2): 3.2 mg/mL (≈ 21.2 mM)
solubility (physchem; buffered deionized water, pH 4.8): 1.1 mg/mL (≈ 7.28 mM)
solubility (physchem; buffered deionized water, pH 6.8): 0.4 mg/mL (≈ 2.65 mM)
solubility of 1,2-benzisothiazolin-3-one [2]: essentially nil

O=CCCCC=O [Glutaraldehyde, glutaraldehyde]
MIC (microbial contamination; 24 h, 1 day): 250 µg/mL
MIC (microbial contamination; 48 h, 2 days): 150 µg/mL
MIC (microbial contamination; 72 h, 3 days): 200 µg/mL
MIC (microbial contamination; 168 h, 7 days): 250 µg/mL
MIC ([1]; Week 1): 250 µg/mL
MIC ([1]; Week 2): 500 µg/mL
MIC ([1]; Week 3): 500 µg/mL
antimicrobial activity/potency on repeated challenge (in words) ([1]; calcium carbonate slurry, second and third challenges with microbial insults): undergoes a reduction in antimicrobial activity
